US20080293712A1, “Benzo[C][2,7]Naphtyridine Derivatives, Methods of Making Thereof and Methods of Use Thereof” (WYETH, priority 2007, published 2008)

Molecular target: T1, PDK-1 (Homo sapiens, UniProt O15530)
T1 sequence (O15530 1-556): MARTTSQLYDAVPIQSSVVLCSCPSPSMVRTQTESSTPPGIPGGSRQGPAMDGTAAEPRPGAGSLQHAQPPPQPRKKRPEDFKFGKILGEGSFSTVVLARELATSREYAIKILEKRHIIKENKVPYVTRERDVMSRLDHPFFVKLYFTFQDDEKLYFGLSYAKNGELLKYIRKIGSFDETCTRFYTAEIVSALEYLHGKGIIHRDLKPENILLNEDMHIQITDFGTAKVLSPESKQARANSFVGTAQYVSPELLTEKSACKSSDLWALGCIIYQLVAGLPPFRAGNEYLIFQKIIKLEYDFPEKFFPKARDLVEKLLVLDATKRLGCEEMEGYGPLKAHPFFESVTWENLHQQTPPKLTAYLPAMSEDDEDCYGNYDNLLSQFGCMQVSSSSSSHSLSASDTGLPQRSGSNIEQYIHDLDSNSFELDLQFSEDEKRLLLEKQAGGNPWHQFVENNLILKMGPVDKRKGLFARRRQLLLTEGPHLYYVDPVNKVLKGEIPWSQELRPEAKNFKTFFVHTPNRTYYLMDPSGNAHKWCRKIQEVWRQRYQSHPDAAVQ
Experiment: PDK-1 kinase inhibition ELISA assay (phosphorylation of His6-tagged SGK1 S422D by PDK-1)
Assay type: biochemical
Conditions: not given

Compound `COc1cc2ncc3c(N)nc(-c4cncc(Nc5ccccc5CO)c4)cc3c2cc1OC` [Ib-196, (2-{[5-(4-amino-8,9-dimethoxybenzo[c][2,7]naphthyridin-2-yl)pyridin-3-yl]amino}phenyl)methanol] has an IC50 of 47 nM.

Same assay, conditions: PDK-1 ELISA, Table 11; read-out: Average IC50

Point of comparison: `COc1cc2ncc3c(N)nc(-c4cncc(OC[C@@H](N)CN5CCN(c6ccccn6)CC5)c4)cc3c2cc1OC` [Ib-20, 2-(5-{[(2S)-2-amino-3-(4-pyridin-2-ylpiperazin-1-yl)propyl]oxy}pyridin-3-yl)-8,9-dimethoxybenzo[c]-2,7-naphthyridin-4-amine], IC50 66 nM. Against it:
- COc1cc2ncc3c(N)nc(-c4cncc(OC[C@@H](N)CN5CCN(c6ccncc6)CC5)c4)cc3c2cc1OC [Ib-107, 2-(5-{[(2S)-2-amino-3-(4-pyridin-4-ylpiperazin-1-yl)propyl]oxy}pyridin-3-yl)-8,9-dimethoxybenzo[c][2,7]naphthyridin-4-amine] — 1.6-fold lower, 42 nM
- COc1cc2ncc3c(N)nc(-c4cncc(Oc5ccc(N)nc5)c4)cc3c2cc1OC [Ib-172, 2-{5-[(6-Aminopyridin-3-yl)oxy]pyridin-3-yl}-8,9-dimethoxybenzo[c][2,7]naphthyridin-4-amine] — 2.3-fold higher, 151 nM
- COc1cc2ncc3c(N)nc(-c4cncc(OC[C@@H](N)CSc5nccn5C)c4)cc3c2cc1OC [Ib-161, 2-[5-({(2R)-2-amino-3-[(1-methyl-1H-imidazol-2-yl)thio]propyl}oxy)pyridin-3-yl]-8,9-dimethoxybenzo[c][2,7]naphthyridin-4-amine] — 22-fold lower, 3 nM
- COc1cc2ncc3c(N)nc(-c4cncc(OC[C@@H](N)COc5nccs5)c4)cc3c2cc1OC [Ib-156, 2-(5-{[(2R)-2-amino-3-(1,3-thiazol-2-yloxy)propyl]oxy}pyridin-3-yl)-8,9-dimethoxybenzo[c][2,7]naphthyridin-4-amine] — 22-fold lower, 3 nM
- COc1cc2ncc3c(N)nc(-c4cncc(OC[C@@H](N)CN(C)c5cccc(F)c5)c4)cc3c2cc1OC [Ib-83, (2S)-3-{[5-(4-amino-8,9-dimethoxybenzo[c][2,7]naphthyridin-2-yl)pyridin-3-yl]oxy}-N1-(3-fluorophenyl)-N1-methylpropane-1,2-diamine] — 13-fold lower, 5 nM
- COCCOc1cc2ncc3c(N)nc(OC)cc3c2cc1OC [Ia-58, 2,9-Dimethoxy-8-(2-methoxyethoxy)benzo[c]-2,7-naphthyridin-4-amine] — 19-fold higher, 1280 nM
- COc1cc2ncc3c(N)nc(-c4cncc(CCC5(N)CCCCC5)c4)cc3c2cc1OC [Ib-258, 2-{5-[2-(1-aminocyclohexyl)ethyl]pyridin-3-yl}-8,9-dimethoxybenzo[c][2,7]naphthyridin-4-amine] — 2.4-fold lower, 27 nM
- Nc1nc(-n2ccnc2)cc2c1cnc1cc(Br)ccc12 [Ia-37, 8-Bromo-2-(1H-imidazol-1-yl)benzo[c]-2,7-naphthyridin-4-amine] — 8-fold higher, 527 nM
- COc1ccc(Oc2cncc(-c3cc4c(cnc5cc(OC)c(OC)cc54)c(N)n3)c2)cc1 [Ib-210, 8,9-dimethoxy-2-[5-(4-methoxyphenoxy)pyridin-3-yl]benzo[c][2,7]naphthyridin-4-amine] — higher, > 700 nM
- COc1cc2ncc3c(N)nc(-c4cncc(OC[C@@H](N)Cn5ccc(=N)cc5)c4)cc3c2cc1OC [Ib-82, 2-(5-{[(2S)-2-amino-3-(4-iminopyridin-1(4H)-yl)propyl]oxy}pyridin-3-yl)-8,9-dimethoxybenzo[c][2,7]naphthyridin-4-amine] — within 1.5-fold, 92 nM
- COc1cc2ncc3c(N)nc(-c4cncc(OC[C@@H](N)CNC(C)(C)Cc5ccc(F)cc5)c4)cc3c2cc1OC [Ib-87, (2S)-3-{[5-(4-amino-8,9-dimethoxybenzo[c][2,7]naphthyridin-2-yl)pyridin-3-yl]oxy}-N1-[2-(4-fluorophenyl)-1,1-dimethylethyl]propane-1,2-diamine] — 5.5-fold lower, 12 nM
- COc1cc2ncc3c(N)nc(-c4cncc(Nc5cccc(C#N)c5)c4)cc3c2cc1OC [Ib-179, 3-{[5-(4-amino-8,9-dimethoxybenzo[c][2,7]naphthyridin-2-yl)pyridin-3-yl]amino}benzonitrile] — higher, > 700 nM
- COc1cc2ncc3c(N)nc(-c4cncc(OC[C@@H](N)CNCC5(c6ccccc6)CCOCC5)c4)cc3c2cc1OC [Ib-104, (2S)-3-{[5-(4-amino-8,9-dimethoxybenzo[c][2,7]naphthyridin-2-yl)pyridin-3-yl]oxy}-N1-[(4-phenyltetrahydro-2H-pyran-4-yl)methyl]propane-1,2-diamine] — 2.6-fold lower, 25 nM
- COc1cc2ncc3c(N)nc(-c4cncc(Nc5ccccc5-c5ccccc5)c4)cc3c2cc1OC [Ib-204, 2-[5-(biphenyl-2-ylamino)pyridin-3-yl]-8,9-dimethoxybenzo[c][2,7]naphthyridin-4-Amine] — within 1.5-fold, 51 nM
- COc1cc2ncc3c(N)nc(-c4cncc(OC[C@@H](N)CN5CCC[C@H]5c5nccs5)c4)cc3c2cc1OC [Ib-98, 2-[5-({(2S)-2-amino-3-[(2S)-2-(1,3-thiazol-2-yl)pyrrolidin-1-yl]propyl}oxy)pyridin-3-yl]-8,9-dimethoxybenzo[c][2,7]naphthyridin-4-amine] — 6.6-fold lower, 10 nM
- COc1cc2ncc3c(N)nc(-c4cncc(C#CCN(C)[C@H](C)Cc5ccccc5)c4)cc3c2cc1OC [Ib-22, 8,9-Dimethoxy-2-[5-(3-{methyl[(1R)-1-methyl-2-phenylethyl]amino}prop-1-yn-1-yl)pyridin-3-yl]benzo[c]-2,7-naphthyridin-4-amine] — higher, > 100 nM
- COc1cc2ncc3c(N)nc(-c4cncc(Nc5ccc(C(N)=O)cc5)c4)cc3c2cc1OC [Ib-206, 4-{[5-(4-amino-8,9-dimethoxybenzo[c][2,7]naphthyridin-2-yl)pyridin-3-yl]amino}benzamide] — 2.8-fold higher, 183 nM
- COc1cc2ncc3c(N)nc(-c4cncc(Nc5cccc(CN)c5)c4)cc3c2cc1OC [Ib-189, 2-(5-{[3-(aminomethyl)phenyl]amino}pyridin-3-yl)-8,9-dimethoxybenzo[c][2,7]naphthyridin-4-amine] — 2.4-fold lower, 27 nM
- COc1cc2ncc3c(N)nc(-c4cncc(OC[C@@H](N)COC5=NCCN5)c4)cc3c2cc1OC [Ib-148, 2-(5-{[(2R)-2-amino-3-(4,5-dihydro-1H-imidazol-2-yloxy)propyl]oxy}pyridin-3-yl)-8,9-dimethoxybenzo[c][2,7]naphthyridin-4-amine] — 7.3-fold lower, 9 nM
- COCCOc1cc2ncc3c(NCc4cccnc4)nc(NCc4cccnc4)cc3c2cc1OC [Compound I-3, 9-methoxy-8-(2-methoxyethoxy)-N,N′-bis(pyridin-3-ylmethyl)benzo[c]-2,7-naphthyridine-2,4-diamine] — 130-fold higher, 8830 nM
- COCCOc1cc2ncc3c(N)nc(N4CCC[C@@H]4COC)cc3c2cc1OC [Ia-56, 9-methoxy-8-(2-methoxyethoxy)-2-[(2R)-2-(methoxymethyl)pyrrolidin-1-yl]benzo[c]-2,7-naphthyridin-4-amine] — 36-fold higher, 2360 nM
- COc1cc2ncc3c(N)nc(-c4cncc(Nc5ccc(C(=O)Nc6ccccc6)cc5)c4)cc3c2cc1OC [Ib-193, 4-{[5-(4-amino-8,9-dimethoxybenzo[c][2,7]naphthyridin-2-yl)pyridin-3-yl]amino}-N-phenylbenzamide] — 7.7-fold higher, 506 nM
- COc1cc2ncc3c(N)nc(-c4cncc(OC[C@@H](N)CNC(C)(C)c5ccncc5)c4)cc3c2cc1OC [Ib-108, (2S)-3-{[5-(4-amino-8,9-dimethoxybenzo[c][2,7]naphthyridin-2-yl)pyridin-3-yl]oxy}-N1-(1-methyl-1-pyridin-4-ylethyl)propane-1,2-diamine] — 9.4-fold lower, 7 nM
- COc1cc2ncc3c(N)nc(-c4cc(F)cc(F)c4)cc3c2cc1OC [Ib-239, 2-(3,5-difluorophenyl)-8,9-dimethoxybenzo[c][2,7]naphthyridin-4-amine] — 15-fold higher, 1000 nM
- COc1cc2ncc3c(N)nc(N4CC[C@@H](O)C4)cc3c2cc1OC [Ib-65, (3R)-1-(4-amino-8,9-dimethoxybenzo[c]-2,7-naphthyridin-2-yl)pyrrolidin-3-ol] — 70-fold higher, 4610 nM
- COc1cc2ncc3c(N)nc(-c4cncc(OC[C@@H](N)COc5cc(C(F)(F)F)ccc5F)c4)cc3c2cc1OC [Ib-144, 2-[5-({(2R)-2-amino-3-[2-fluoro-5-(trifluoromethyl)phenoxy]propyl}oxy)pyridin-3-yl]-8,9-dimethoxybenzo[c][2,7]naphthyridin-4-amine] — within 1.5-fold, 64 nM
- COc1cc2ncc3c(N)nc(-c4cncc(OC[C@@H](N)COc5ncc(Cl)cc5Cl)c4)cc3c2cc1OC [Ib-153, 2-[5-({(2R)-2-amino-3-[(3,5-dichloropyridin-2-yl)oxy]propyl}oxy)pyridin-3-yl]-8,9-dimethoxybenzo[c][2,7]naphthyridin-4-amine] — 16-fold lower, 4 nM
- COc1cc2ncc3c(N)nc(-c4cncc(OC[C@@H](N)CSc5ccccc5)c4)cc3c2cc1OC [Ib-162, 2-(5-{[(2R)-2-amino-3-(phenylthio)propyl]oxy}pyridin-3-yl)-8,9-dimethoxybenzo[c][2,7]naphthyridin-4-amine] — 16-fold lower, 4 nM
- COc1cc2ncc3c(N)nc(-c4cncc(OC[C@@H](N)COc5nc6ccccc6[nH]5)c4)cc3c2cc1OC [Ib-146, 2-(5-{[(2R)-2-amino-3-(1H-benzimidazol-2-yloxy)propyl]oxy}pyridin-3-yl)-8,9-dimethoxybenzo[c][2,7]naphthyridin-4-amine] — 33-fold lower, 2 nM
- COCCOc1cc2ncc3c(N)nc(N(C)C4CCN(C)C4)cc3c2cc1OC (centres unmarked) [Ia-52, 9-methoxy-8-(2-methoxyethoxy)-N2-methyl-N^2-(1-methylpyrrolidin-3-yl)benzo[c]-2,7-naphthyridine-2,4-diamine] — 50-fold higher, 3280 nM
